Laboratory results: patent US12240862B2, “Inhibitors of peptidylarginine deiminases” (Gilead Sciences, Inc., priority 2020, dated 2025)

target: T1, human PAD4 (Homo sapiens, UniProt Q9UM07); assay: In vitro PAD4 BAEE biochemical assay; conditions: human PAD4, BAEE substrate; 5 nM PAD4, 2 mM calcium chloride, 3 mM BAEE; geometric mean of multiple experiments
T1 construct: human PAD4 (NM_012387), A2P663, was PCR amplified; His-SUMO (N, cleaved yes); made in house; host or cells: E. coli BL21(DE3)
T1 sequence (Q9UM07 2-663): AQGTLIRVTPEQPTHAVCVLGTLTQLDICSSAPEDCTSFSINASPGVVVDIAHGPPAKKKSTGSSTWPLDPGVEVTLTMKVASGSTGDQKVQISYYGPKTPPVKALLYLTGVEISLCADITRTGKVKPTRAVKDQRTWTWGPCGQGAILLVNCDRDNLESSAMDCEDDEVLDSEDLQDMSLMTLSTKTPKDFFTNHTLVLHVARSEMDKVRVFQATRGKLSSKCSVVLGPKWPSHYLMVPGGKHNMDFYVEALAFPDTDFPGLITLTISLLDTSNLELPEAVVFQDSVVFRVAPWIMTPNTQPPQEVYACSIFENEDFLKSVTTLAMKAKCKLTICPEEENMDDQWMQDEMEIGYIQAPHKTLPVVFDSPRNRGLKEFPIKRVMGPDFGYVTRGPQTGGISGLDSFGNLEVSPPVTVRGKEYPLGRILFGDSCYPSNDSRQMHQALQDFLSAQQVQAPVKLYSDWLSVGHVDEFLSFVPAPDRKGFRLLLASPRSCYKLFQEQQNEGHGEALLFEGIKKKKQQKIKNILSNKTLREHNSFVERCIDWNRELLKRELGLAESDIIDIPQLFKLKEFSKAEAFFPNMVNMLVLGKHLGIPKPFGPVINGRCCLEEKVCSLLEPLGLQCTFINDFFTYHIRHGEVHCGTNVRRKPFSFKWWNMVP
How it was run: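 Ammonia generated from BAEE serves as the readout, measured by o-phthalaldehyde after EDTA termination. Final conditions: 5 nM human PAD4 (SUMO tag cleaved), 2 mM CaCl2, 3 mM BAEE, pH 7.6 MOPS buffer, 25 °C for 2 h following a 30-min compound preincubation.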

IC50 [nM]	SMILES
14100	COc1cc(C(=O)N2CCC3(CCCN3)CC2)cc2nc(-c3cc4ccc(N(C(F)F)S(C)(=O)=O)nc4n3CC3CC3)c(C)n12 [Example 342, ~{N}-[1-(cyclopropylmethyl)-2-[7-(1,8-diazaspiro[4.5]decane-8-carbonyl)-5-methoxy-3-methylimidazo[1,2-a]pyridin-2-yl]pyrrolo[2,3-b]pyridin-6-yl]-~{N}-(difluoromethyl) methanesulfonamide]
144	COc1cc(C(=O)N2CC[C@@H](O)[C@@H](N)C2)cc2nc(-c3cc4ccc(N(C(F)F)S(C)(=O)=O)nc4n3CC3CC3)c(C)n12 [Example 348, ~{N}-[2-[7-[(3~{S}, 4~{R})-3-amino-4-hydroxypiperidine-1-carbonyl]-5-methoxy-3-methylimidazo [1,2-a]pyridin-2-yl]-1-(cyclopropylmethyl)pyrrolo[2,3-b]pyridin-6-yl]-~{N}-(difluoromethyl) methanesulfonamide]
485	COc1cc(C(=O)N2C[C@H]3CCC[C@@H]2[C@@H]3N)cc2nc(-c3cc4ccc(N(C(F)F)S(C)(=O)=O)nc4n3CC3CC3)c(C)n12 [Example 349, N-(2-(7-((1R,5R,8R)-8-amino-6-azabicyclo[3.2.1]octane-6-carbonyl)-5-methoxy-3-methylimidazo [1,2-a]pyridin-2-yl)-1-(cyclopropylmethyl)-1H-pyrrolo[2,3-b]pyridin-6-yl)-N-(difluoromethyl) methanesulfonamide]
6510	COc1cc(C(=O)N2[C@H]3CC(C)[C@@H]2[C@H](N)C3)cc2nc(-c3cc4ccc(N(C(F)F)S(C)(=O)=O)nc4n3CC3CC3)c(C)n12 (stereo partly drawn) [Example 351, N-[2-[7-[(1R,2R,4S)-2-amino-6-methyl-7-azabicyclo[2.2.1]heptane-7-carbonyl]-5-methoxy-3-methyl-imidazo[1,2-a]pyridin-2-yl]-1-(cyclopropylmethyl)pyrrolo [2,3-b]pyridin-6-yl]-N-(difluoromethyl) methanesulfonamide]
711	COc1cc(C(=O)N2[C@@H]3C[C@@H](N)[C@H]2CC3C)cc2nc(-c3cc4ccc(N(C(F)F)S(C)(=O)=O)nc4n3CC3CC3)c(C)n12 (stereo partly drawn) [Example 352, N-[2-[7-[(1R,2R,4R)-2-amino-5-methyl-7-azabicyclo[2.2.1]heptane-7-carbonyl]-5-methoxy-3-methyl-imidazo[1,2-a]pyridin-2-yl]-1-(cyclopropylmethyl)pyrrolo [2,3-b]pyridin-6-yl]-N-(difluoromethyl) methanesulfonamide]
26800	COc1cc(C(=O)N2C[C@H](N)C[C@@H]2CF)cc2nc(-c3cc4ccc(N(C(F)F)S(C)(=O)=O)nc4n3CC3CC3)c(C)n12 [Example 353, N-[2-[7-[(2R,4R)-4-amino-2-(fluoromethyl)pyrrolidine-1-carbonyl]-5-methoxy-3-methyl-imidazo[1,2-a]pyridin-2-yl]-1-(cyclopropylmethyl)pyrrolo [2,3-b]pyridin-6-yl]-N-(difluoromethyl) methanesulfonamide]
420	COc1cc(C(=O)N2CC[C@H]3OCCCN[C@H]3C2)cc2nc(-c3cc4ccc(N(C(F)F)S(C)(=O)=O)nc4n3CC3CC3)c(C)n12 [Example 359]
725	COc1cc(C(=O)N2CC[C@@H](NC(C)=O)[C@@H](N)C2)cc2nc(-c3cc4ccc(N(C(F)F)S(C)(=O)=O)nc4n3CC3CC3)c(C)n12 [Example 360, ~{N}-[(3~{S},4~{R})-3-amino-1-[2-[1-(cyclopropylmethyl)-6-[difluoromethyl (methylsulfonyl)amino]pyrrolo[2,3-b]pyridin-2-yl]-5-methoxy-3-methylimidazo[1,2-a]pyridine-7-carbonyl]piperidin-4-yl]acetamide]
258	COc1cc(C(=O)N2C[C@H]3CC(F)[C@@H]2[C@@H]3N)cc2nc(-c3cc4ccc(N(C(F)F)S(C)(=O)=O)nc4n3CC3CC3)c(C)n12 (stereo partly drawn) [Example 361, N-[2-[7-[(1S,4R,7R)-7-amino-6-fluoro-2-azabicyclo[2.2.1]heptane-2-carbonyl]-5-methoxy-3-methyl-imidazo[1,2-a]pyridin-2-yl]-1-(cyclopropylmethyl)pyrrolo [2,3-b]pyridin-6-yl]-N-(difluoromethyl) methanesulfonamide]
248	COc1cc(C(=O)N2CC[C@H]3C[C@@]3(N)C2)cc2nc(-c3cc4ccc(N(C(F)F)S(C)(=O)=O)nc4n3CC3CC3)c(C)n12 [Example 362, ~{N}-[2-[7-[(1~{S}, 6~{S})-1-amino-3-azabicyclo[4.1.0]heptane-3-carbonyl]-5-methoxy-3-methylimidazo [1,2-a]pyridin-2-yl]-1-(cyclopropylmethyl)pyrrolo [2,3-b]pyridin-6-yl]-~{N}-(difluoromethyl) methanesulfonamide]
1960	COc1cc(C(=O)N2CC[C@@H]3C[C@]3(N)C2)cc2nc(-c3cc4ccc(N(C(F)F)S(C)(=O)=O)nc4n3CC3CC3)c(C)n12 [Example 363, ~{N}-[2-[7-[(1~{R},6~{R})-1-amino-3-azabicyclo[4.1.0]heptane-3-carbonyl]-5-methoxy-3-methylimidazo[1,2-a]pyridin-2-yl]-1-(cyclopropylmethyl)pyrrolo [2,3-b]pyridin-6-yl]-~{N}-(difluoromethyl) methanesulfonamide]
403	COc1cc(C(=O)N2CCC3CC3(N)C2)cc2nc(-c3cc4ccc(N(C(F)F)S(C)(=O)=O)nc4n3CC3CC3)c(C)n12 (stereo not drawn) [Example 365, ~{N}-[2-[7-(1-amino-3-azabicyclo[4.1.0]heptane-3-carbonyl)-5-methoxy-3-methylimidazo [1,2-a]pyridin-2-yl]-1-(cyclopropylmethyl)pyrrolo [2,3-b]pyridin-6-yl]-~{N}-(difluoromethyl) methanesulfonamide]
499	[2H]C([2H])([2H])N(c1ccc2cc(-c3nc4cc(C(=O)N5C[C@H]6CC[C@@H]5[C@@H]6N)cc(OC)n4c3C)n(CC)c2n1)S(C)(=O)=O [Example 366, N-[2-[7-[(1R,4R,7R)-7-amino-2-azabicyclo[2.2.1]heptane-2-carbonyl]-5-methoxy-3-methyl-imidazo[1,2-a]pyridin-2-yl]-1-ethyl-pyrrolo [2,3-b]pyridin-6-yl]-N-(trideuteriomethyl) methanesulfonamide]
5310	COc1cc(C(=O)N2CC3(CNC3)C2)cc2nc(-c3cc4ccc(N(C(F)F)S(C)(=O)=O)nc4n3CC3CC3)c(C)n12 [Example 367, ~{N}-[1-(cyclopropylmethyl)-2-[7-(2,6-diazaspiro[3.3]heptane-2-carbonyl)-5-methoxy-3-methylimidazo[1,2-a]pyridin-2-yl]pyrrolo[2,3-b]pyridin-6-yl]-~{N}-(difluoromethyl) methanesulfonamide]
43600	COc1cc(C(=O)N2C[C@H]3CC[C@@H]2[C@@H](N)C3)cc2nc(-c3cc4ccc(N(C(F)F)S(C)(=O)=O)nc4n3CC3CC3)c(C)n12 [Example 368, ~{N}-[2-[7-[(1~{R},4~{S}, 6~{S})-6-amino-2-azabicyclo[2.2.2]octane-2-carbonyl]-5-methoxy-3-methylimidazo[1,2-a]pyridin-2-yl]-1-(cyclopropylmethyl)pyrrolo [2,3-b]pyridin-6-yl]-~{N}-(difluoromethyl) methanesulfonamide]
17100	CCC1CC2CN(C(=O)c3cc(OC)n4c(C)c(-c5cc6ccc(N(C(F)F)S(C)(=O)=O)nc6n5CC5CC5)nc4c3)C1C2N (stereo not drawn) [Example 370]
10600	CCOC1C[C@@H]2CN(C(=O)c3cc(OC)n4c(C)c(-c5cc6ccc(N(C(F)F)S(C)(=O)=O)nc6n5CC5CC5)nc4c3)[C@H]1[C@@H]2N (stereo partly drawn) [Example 371, N-[2-[7-[(1S,4R,7R)-7-amino-6-ethoxy-2-azabicyclo[2.2.1]heptane-2-carbonyl]-5-methoxy-3-methyl-imidazo[1,2-a]pyridin-2-yl]-1-(cyclopropylmethyl)pyrrolo [2,3-b]pyridin-6-yl]-N-(difluoromethyl) methanesulfonamide]
2000	COc1cc(C(=O)N2C[C@H]3C[C@H](OC)[C@@H]2[C@@H]3N)cc2nc(-c3cc4ccc(N(C(F)F)S(C)(=O)=O)nc4n3CC3CC3)c(C)n12 [Example 372, N-[2-[7-[(1S,4R,6S,7R)-7-amino-6-methoxy-2-azabicyclo[2.2.1]heptane-2-carbonyl]-5-methoxy-3-methyl-imidazo [1,2-a]pyridin-2-yl]-1-(cyclopropylmethyl)pyrrolo [2,3-b]pyridin-6-yl]-N-(difluoromethyl) methanesulfonamide]
2730	COc1cc(C(=O)N2C[C@@H]3CC[C@H]2[C@@H](N)C3)cc2nc(-c3cc4ccc(N(C(F)F)S(C)(=O)=O)nc4n3CC3CC3)c(C)n12 [Example 375, ~{N}-[2-[7-[(1~{S},4~{R}, 6~{S})-6-amino-2-azabicyclo[2.2.2]octane-2-carbonyl]-5-methoxy-3-methylimidazo[1,2-a]pyridin-2-yl]-1-(cyclopropylmethyl)pyrrolo [2,3-b]pyridin-6-yl]-~{N}-(difluoromethyl) methanesulfonamide]
404	COc1cc(C(=O)N2C[C@H]3CC[C@@H]2[C@H](N)C3)cc2nc(-c3cc4ccc(N(C(F)F)S(C)(=O)=O)nc4n3CC3CC3)c(C)n12 [Example 376, ~{N}-[2-[7-[(1~{R},4~{S}, 6~{R})-6-amino-2-azabicyclo[2.2.2]octane-2-carbonyl]-5-methoxy-3-methylimidazo[1,2-a]pyridin-2-yl]-1-(cyclopropylmethyl)pyrrolo [2,3-b]pyridin-6-yl]-~{N}-(difluoromethyl) methanesulfonamide]

SMILES	IC50 [nM]
COc1cc(C(=O)N2C[C@H](N)C[C@@H]2C)cc2nc(-c3cc4ccc(N(C(F)F)S(C)(=O)=O)nc4n3CC3CC3)c(C)n12 [Example 354, N-[2-[7-[(2S,4R)-4-amino-2-methyl-pyrrolidine-1-carbonyl]-5-methoxy-3-methyl-imidazo[1,2-a]pyridin-2-yl]-1-(cyclopropylmethyl)pyrrolo[2,3-b]pyridin-6-yl]-N-(difluoromethyl) methanesulfonamide]	1890
